Tests used:
[1] = test system: SRS-A-induced constriction of the guinea pig ileum; assay: Guinea Pig Ileum, In Vitro (SRS-A antagonism); format: cell-based; settings: Cavia porcellus; SRS-A-induced constriction, 37° C., SRS-A at its EC50; read-out: In vitro Guinea Pig ileum IC50
Method: (a) Guinea Pig Ileum, In Vitro:
The guinea pig ileum bioassay system has been described by Orange Austen, Adv. Immunol. […] A 1.5 cm segment is removed from animals weighing 300-400 g and suspended in an organ bath containing 10 ml of Tyrodes solution with 10^-6 M atropine sulfate and 10^-6 M pyrilamine maleate. […] The SRS-A utilized in this screen is obtained by challenging chopped lung fragments from actively sensitized guinea pigs with egg albumin, in vitro. A dose-response curve to SRS-A challenge is established for the ileum. […] The drug concentration which inhibits, by 50%, the SRS-A-induced constriction of the guinea pig ileum is determined.

[2] = test system: leukotriene E4 bronchoconstriction; assay: Guinea Pig Bronchoconstriction, In Vivo (Aerosol), leukotriene E4 challenge; design: species or system guinea pig (Hartley strain); settings: five minute exposure, drug concentration of aerosol solution (w/v), leukotriene E4 i.v.
Method: (b) Guinea Pig Bronchoconstriction, In Vivo (Aerosol):
Male guinea pigs (Hartley strain) weighing 300 to 500 g are anesthetized with urethane (2 g/kg) intraperitoneally and a polyethylene cannula is inserted into the jugular vein for drug administration. Tracheal pressure is recorded from a cannula inserted in the trachea and connected to a Statham pressure transducer. After surgical preparation of the animals, a period of time is allowed for pulmonary functions to stabilize. The test compound is administered according to the following protocol. Propanolol (0.1 mg/kg) is administered intravenously while the animals breathed spontaneously. Five minutes thereater, the animals are exposed for a five minute period to a 1% (w/v) aerosol solution of test compound (adjusted to an alkaline pH where necessary for drug solubilization) or to distilled water of thhe appropriate pH (for control purposes). A Monaghan (Model 750) ultrasonic nebulizer is used to administer all test compounds by inhalation. The nebulizer ultrasonic frequency is adjusted to produce particles in the 1-8μ diameter range (average 3μ). Aqueous solutions are prepared freshly and introduced into the chamber of the nebulizer. The output of the nebulizer is made available to the animal by directing a bias flow of aerosol through a Y tube connected to the trachel cannula. At the end of the exposure period, the animals are paralyzed with succinylcholine (1.2 mg/kg, i.v.) and mechanically respirated (Harvard rodent respirator) at 40 breaths/minute and 2.5 cc tidal volume. Animals are then challenged with a maximum constrictory dose of leukotriene E4 delivered intravenously 30 seconds after administration of the succinylcholine.
The change (cm H2 O) between pre and peak ventilatory pressure readings averaged for three control animals and five drug treated animals. The percent inhibition is calculated from the following formula: [formula] When various drug concentrations are tested, the percent inhibition at each concentration is plotted as log concentration (abscissa) versus percent inhibition (ordinate) and the IC50 is determined from linear regression analysis.

[3] = test system: leukotriene D4 induced bronchoconstriction; assay: Oral Testing of Leukotriene Antagonists, leukotriene D4 challenge; format: in vivo, guinea pig (Hartley strain); settings: Cavia porcellus, 2 h, p.o., two hours prior to challenge
Method: (c) Oral Testing of Leukotriene Antagonists
Male guinea pigs (Hartley strain, Charles River) weighing 400 to 600 g were anesthetized with urethane (2 g/kg) intraperitoneally and a polyethylene cannula was inserted into the jugular vein for intravenous drug administration. Tracheal pressure (cm water) was recorded from a Statham pressure transducer. After surgical preparation of the animals, a period of time was allowed for spontaneous breathing to stabilize. […] Two minutes later, spontaneous breathing was arrested with succinylcholine chloride (1.2 mg/kg, i.v.) and the animals ventilated with a Harvard (Model #680) small animal respirator set at 40 breaths per minute and 4.0 cc stroke volume. The animals were challenged with a maximum constrictory dose of either leukotriene C4 or leukotriene D4 or leukotriene E4 (25 μg/kg, i.v.) at 5 minutes. Control vehicle or test drug (adjusted to an alkaline pH where necessary for drug solubilization) was administered (10 mg/kg, p.o.) two hours prior to challenge with leukotriene. In order to determine the ID50 for a test drug, the dose is varied from 10 mg/kg, p.o. to 100, 50, 30, 20, 5, 3 and 1 mg/kg, p.o.
In order to determine oral duration of action, the time between exposure to test drug and challenge with leukotriene is varied.

`CCCc1c(OCCCOc2ccc3c(c2)OC(C(=O)O)CC3)ccc(C(C)=O)c1O` (racemic) [racemic-7-[3-(4-acetyl-3-hydroxy-2-propylphenoxy)propoxy]-3,4-dihydro-2H-1-benzopyran-2-carboxylic acid] was tested, and the IC50 [1] was 60 nM and the “Guinea Pig Bronchoconstriction In vivo aerosol - IC50” value [2] was 0.14%.

`CCCc1c(OCCCOc2ccc3c(c2CCC)OC(C(=O)O)CC3)ccc(C(C)=O)c1O` (racemic) [racemic-7-[3-(4-acetyl-3-hydroxy-2-propyl)phenoxy)propoxy]-3,4-dihydro-8-propyl-2H-1-benzopyran-2-carboxylic acid] was tested, and the IC50 [1] was 100 nM and the “Guinea Pig Bronchoconstriction In vivo aerosol - IC50” value [2] was 0.20%.

In the case of `CCCc1c(OCCCCCCCOc2cc3c(cc2C(C)=O)CCC(C(=O)O)O3)ccc(C(C)=O)c1O` (racemic) [racemic-6-acetyl-7-[7-(4-acetyl-3-hydroxy-2-propylphenoxy)heptyloxy]-3,4-dihydro-2H-1-benzopyran2-carboxylic acid], the IC50 [1] is reported as 1000 nM and the “Guinea Pig Bronchoconstriction In vivo aerosol - IC50” value [2] is reported as 1.0%.

For `CCCc1c(OCCCOc2ccc3c(c2)CCC(C)(CCC(=O)O)O3)ccc(C(C)=O)c1O` (racemic) [racemic-6-[3-(4-acetyl-3-hydroxy-2-propylphenoxy)propoxy]-3,4-dihydro-2-methyl-2H-1-benzopyran-2-propanoic acid], the IC50 [1] was 500 nM and the “Guinea Pig Bronchoconstriction In vivo aerosol - IC50” value [2] was over 1.0%.

In the case of `CCCc1c(OCCCOc2ccc3c(c2)CCC(C(=O)O)O3)ccc(C(C)=O)c1O` (racemic) [racemic-6-[3-(4-acetyl-3-hydroxy-2-propylphenoxy)propoxyl]3,4-dihydro-2H-1-benzopyran-2-carboxylic acid], the IC50 [1] is reported as 500 nM and the “Guinea Pig Bronchoconstriction In vivo aerosol - IC50” value [2] is reported as 0.50%.

With `CCCc1c(OCCCOc2cc3c(cc2C(C)=O)OC(C)(C(=O)O)CC3)ccc(C(C)=O)c1O` (racemic) [racemic-7-acetyl-6-[3-(4-acetyl-3-hydroxy-2-propylphenoxy)propoxy]-3,4-dihydro-2-methyl-2H-1-benzopyran-2-carboxylic acid] the IC50 [1] was 500 nM and the “Guinea Pig Bronchoconstriction In vivo aerosol - IC50” value [2] was 1.0%.

For `CCCc1c(OCCCOc2ccc3c(c2)OCC(C(=O)O)C3)ccc(C(C)=O)c1O` (racemic) [racemic 7-[3-(4-acetyl-3-hydroxy-2-propylphenoxy)propoxy]-3,4-dihydro-2H-1-benzopyran-3-carboxylic acid], the IC50 [1] was 100 nM and the “Guinea Pig Bronchoconstriction In vivo aerosol - IC50” value [2] was over 1.0%.

For `CCCc1c(OCCCCCOc2cc3c(cc2C(C)=O)CCC(C(=O)O)O3)ccc(C(C)=O)c1O` (racemic) [racemic-6-acetyl-7-[5-(4-acetyl-3-hydroxy-2-propylphenoxy)pentyloxy]-3,4-dihydro-2H-1-benzopyran-2-carboxylic acid], the IC50 [1] was 60 nM and the “Guinea Pig Bronchoconstriction In vivo aerosol - IC50” value [2] was 0.052%.

For `CCCc1c(OCCCOc2c(C)c(C)c3c(c2C)CCC(C)(C(=O)O)O3)ccc(C(C)=O)c1O` (racemic) [racemic-6-[3-(4-acetyl-3-hydroxy-2-propylphenoxy)propoxy]-3,4-dihydro-2,5,7,8-tetramethyl-2H-1-benzopyran-2-carboxylic acid], the IC50 [1] was 100 nM and the “Guinea Pig Bronchoconstriction In vivo aerosol - IC50” value [2] was 1.0%.

For `CCCc1c(OCCCCCOc2cc3c(cc2C(C)=O)CCC(CCCCC(=O)O)O3)ccc(C(C)=O)c1O` (racemic) [racemic-6-acetyl-7-[5-(4-acetyl-3-hydroxy-2-propylphenoxy)pentyloxy]-3,4-dihydro-2H-1-benzopyran-2-pentanoic acid], the inhibition at 10 mg/kg [3] was 46 ± 14%.

In the case of `CCCc1c(OCCCOc2c(C(C)=O)cc3c(c2CCC)OC(C(=O)O)CC3)ccc(C(C)=O)c1O` (racemic) [racemic-6-acetyl-7-[3-(4-acetyl-3-hydroxy-2-propylphenoxy)propoxy]-3,4-dihydro-8-propyl-2H-1-benzopyran-2-carboxylic acid], the IC50 [1] is reported as 100 nM and the “Guinea Pig Bronchoconstriction In vivo aerosol - IC50” value [2] is reported as 0.38%.
